Results published in patent US20180148470A1, “CHOLIC ACID DERIVATIVE, AND PREPARATION METHOD AND MEDICAL USE THEREOF” (Jiangsu Hansoh Pharmaceutical Group Co., Ltd., priority 2015, published 2018).

Legend:
FXR = target: T1, FXR (Homo sapiens, UniProt Q96RI1); test: FXR reporter gene expression test (dual luciferase, FXR Gal4 reporter in HepG2 cells); format: cell-based; conditions: HepG2 cells transiently transfected with FXR Gal4 reporter, 18 hours
T1 sequence (Q96RI1 262-486 limits assumed): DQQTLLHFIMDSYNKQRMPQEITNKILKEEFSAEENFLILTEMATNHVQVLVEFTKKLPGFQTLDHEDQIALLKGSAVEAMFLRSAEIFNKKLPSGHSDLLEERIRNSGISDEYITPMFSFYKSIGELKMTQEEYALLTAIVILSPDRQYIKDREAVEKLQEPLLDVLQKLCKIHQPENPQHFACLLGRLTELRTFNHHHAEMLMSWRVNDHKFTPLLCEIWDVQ
Text: FXR Reporter Gene Expression Test
To analyze the effect of testing compounds on FXR-regulated gene expression, we used Promega's dual luciferase assay system (Promega #E1980) to detect the effect of the compounds on the FXR reporter gene in HepG2 hepatoma cell line (ATCC #HB-8065), which was transiently transfected with the FXR Gal4 reporter gene fragment. Specific experimental methods are as follows:
1. HepG2 Cell Culture and Maintenance
Cells were digested and cells with appropriate density were grown in 10 mL complete medium and then cultivated for 24 hours under 37° C., 5% CO2 humidity conditions.
2. Cell planting and transfection. Transfection reagent was Fugene HD (Promega#E231A)
(1) The transfection mixture was prepared according to the following table
(2) The mixture in the tube was vigorously mixed and incubated at room temperature for 15 minutes;
(3) The cells were digested in the culture dish and counted;
(4) The cell suspension was diluted to the desired volume of 600,000/mL (96-well plates 100 μL/well);
(5) The required volume of the transfection mixture was added to the cell suspension, followed by plating at 100 μL/well;
(6) Incubated for 24 hours under 37° C., 5% CO2 humidity conditions.
3. Treatment of the Compound
(1) 10 mM of mother liquor of the compound was prepared and then serially diluted 3 times with DMSO;
(2) 10 μL of compound was added to 90 μL of complete medium (10×);
(3) 5 μL of the solution of the compound (21×) was added to each well;
(4) Incubated for 18 hours under 37° C., 5% CO2 humidity conditions.
The firefly luciferase and the renilla luciferase signal (Promega #E1980) were detected by Promega's dual-luciferase assay system.
(2) Calculating the agonist rate
Agonist rate=(X−Min)/(Max−Min)*100% • X represents the F/R value of each concentration; • Min represents the F/R value without adding compound; • Max represents the F/R value of the reference compound.
(3) EC50 was calculated according to GraphPrism 5.0

FXR receptor = target: T2, FXR receptor (Homo sapiens, UniProt Q96RI1); test: FXR receptor binding activity assay (TR-FRET; GST-FXR-LBD / SRC1 fragment); format: biochemical; conditions: FXR-LBD binding to SRC1 fragment, agonist rate
T2 construct: Prepared 2× GST-labeled FXR-LBD/anti-GST Eu mixture to the required volume, the concentration of GST-FXR-LBD was 6 nM; purchased Life Technology Invitrogen PV4835
T2 sequence (Q96RI1 262-486 limits assumed): T1 sequence (Q96RI1 262-486 limits assumed)
T2 sequence (Q15788 676-700 partner limits assumed): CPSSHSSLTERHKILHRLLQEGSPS
Text: FXR Receptor Binding Activity Assay (Time-Resolved Fluorescence Detection Method TR-FRET Method)
To test the effect of the present compounds on FXR receptor binding, we selected the commercial FXR receptor binding activity assay kit to test the effect of the compounds on FXR and its binding protein fragments (LBD structural domain binds to SRC1 fragment) (kit supplier: Life Technology Invitrogen Catalog: PV4835; cisbio Catalog: 610SAXLA and 61GSTKLA). Specific method was described in the kit instructions. The operation was as follows:
1. Prepared 2× GST-labeled FXR-LBD/anti-GST Eu mixture to the required volume, the concentration of GST-FXR-LBD was 6 nM, Eu was 50 nL/well.
2. Prepared 2× biotin-labeled SRC1/[…] (SA-APC) mixture to the required volume, the concentration of SRC1 was 1000 nM, and […] was 50 nL/well.
3. 2× GST-FXR/Eu and SRC1/SA-APC were mixed in a proportion of 1:1.
4. 20 μL of a mixture of GST-FXR/Eu and SRC1/SA-APC was added to a 384-well plate containing the compounds to be tested.
5. Centrifuged for 1 minute at 1000 rpm; incubated for 180 minutes at room temperature.
6. Time-resolved fluorescence detection: EnVision reader.
(1) the value at 665 nm divided by the value at 615 nm;
(2) calculating the agonist rate
Agonist rate=(X−Min)/(Max−Min)*100% • X represents the 665/615 value for each concentration; • Min represents the 665/615 value without adding compound; • Max represents the 665/615 value of the reference compound.

[1] = Pharmacokinetic test in rats; format: in vivo, Sprague-Dawley (SD) rats; conditions: male SD rats, intragastric administration of 10 mg/kg; for AUC(0-t) / Cmax / Tmax: Sprague-Dawley, rat, po, plasma; for AUC(0-t): read-out: area under the blood concentration-time curve AUC0-t; for Cmax: read-out: peak concentration Cmax; for Tmax: read-out: peak time of blood concentration tmax
Description: Pharmacokinetic Test in Rats
The pharmacokinetic study of the present invention was performed in rats. The pharmacokinetic behavior of the positive control INT-747 and a representative compound of the present invention, such as Example 14-β, was studied in rats, and their pharmacokinetic characteristics were evaluated.
(1) Three male Sprague-Dawley (SD) rats were used, which were supplied by Sippr-BK laboratory animal Co. Ltd. Animal Production License No. SOCK (Shanghai) 2008-0016.
(2) Then, 10 mg of the sample was weighed and added with 10 mL of 0.5% CMC-Na aqueous solution, the mixture was fully shaken to make a 1 mg/ml uniform solution, and the remaining liquid samples were used for quantitative analysis.
(3) Three male SD rats were intragastrically administered at 10 mg/kg with a volume of 10 mL/kg after fasting for one night.
(4) About 0.05 mL of underjaw intravenous blood was collected before and 0.5, 1.0, 2.0, 4.0, 6.0, 8.0, 24.0, 30.0 hours after administration, and then placed in a EDTA-K2 test tube. The blood was centrifuged at 6000 rpm for 5 minutes to isolate the plasma, which was stored at −80° C. The rats were feed 4 hours after administration.
(1) Instruments and Equipment: API 4000 triple quadrupole mass spectrometer, Applied Biosystems, USA; Shimadzu LC-20AD high performance liquid chromatography system, Shimadzu, Japan.
(2) Condition of chromatography: The chromatographic column was Phenomenex gemiu 5 um C18 50×4.6 mm; mobile phase was acetonitrile: 0.1% TFA aqueous solution (gradient elution); flow rate (ml/min) was 0.8 ml/min.

| Structure (SMILES) | EC50 (FXR) [nM] | EC50 (FXR receptor) [nM] | AUC(0-t) [1] [ng·h/mL] | Cmax [1] [ng/mL] | Tmax [1] [min] | exposed quantity in the tested animals compared with positive control INT-747 [1] |
| --- | --- | --- | --- | --- | --- | --- |
| CC[C@H]1[C@@H](O)C2C3CCC([C@H](C)CC4SC(=O)NC4=O)[C@@]3(C)CCC2[C@@]2(C)CC[C@@H](O)C[C@@H]12 (single isomer, unassigned) [Example 14-β] | 57 | 4 | 41800 | 7580 | 60 | significantly better than that of the positive control INT-747 |
| CC[C@H]1[C@@H](O)[C@@H]2[C@H](CC[C@]3(C)[C@@H]([C@H](C)CCC(=O)O)CC[C@@H]23)[C@@]2(C)CC[C@@H](O)C[C@@H]12 [INT-747, reference compound] | – | – | 9030 | 4410 | 30 | – |
